The test system of this assay is SARS-CoV-2. Description: microbe, parasite or virus in culture. As to conditions: Severe acute respiratory syndrome coronavirus 2, Vero C1008, 48 h; for IC50: read-out: pIC50 (converted).

The text below walks through data of ChEMBL document CHEMBL4651402, “Screening of ~5500 FDA-approved drugs and clinical candidates for anti-SARS-CoV-2 activity” (2021).

Molecules are shown by their SMILES. pIC50: −log10 of the molar value.

As to `CC(O)COC[C@H]1O[C@@H]2O[C@H]3[C@H](O)[C@@H](O)[C@@H](O[C@H]4[C@H](O)[C@@H](O)[C@@H](O[C@H]5[C@H](O)[C@@H](O)[C@@H](O[C@H]6[C@H](O)[C@@H](O)[C@@H](O[C@H]7[C@H](O)[C@@H](O)[C@@H](O[C@H]8[C@H](O)[C@@H](O)[C@@H](O[C@H]1[C@H](O)[C@H]2O)O[C@@H]8COCC(C)O)O[C@@H]7COCC(C)O)O[C@@H]6COCC(C)O)O[C@@H]5COCC(C)O)O[C@@H]4COCC(C)O)O[C@@H]3COCC(C)O` (stereo partly drawn) [2-HYDROXYPROPYL-BETA-CYCLODEXTRIN], the negative-log IC50 (pIC50) was under 4.70 and the IC50 was over 20 µM.
The matching figures for `O=c1c(O)c(-c2ccc(O)c(O)c2)oc2cc(O)cc(O)c12` [QUERCETIN]: under 4.70 and over 20 µM.
Consider `CCOC(=O)Nc1ccc2c(c1)N(C(=O)CN(C)C)c1ccccc1CC2` [TIRACIZINE], for which the negative-log IC50 (pIC50) was under 4.70 and the IC50 is over 20 µM.
The matching figures for `COC(=O)C1=C(C)NC(C)=C(C(=O)OCCN2CCN(C(c3ccccc3)c3ccccc3)CC2)C1c1cccc([N+](=O)[O-])c1` (stereo unspecified) [MANIDIPINE 6300]: under 4.70 and over 20 µM.
The matching figures for `CC12CC(=O)C3C(CC[C@H]4CC(O)CCC34C)C1CCC2C(=O)CO` (stereo partly specified): under 4.70 and over 20 µM.
The matching figures for `CC[C@@H]1CCN[C@H](C(=O)N[C@H]([C@H]2O[C@H](SC)[C@H](O)[C@@H](O)[C@H]2O)[C@H](C)Cl)C1`: under 4.70 and over 20 µM.
Take `C[C@]12CCC(=O)C[C@H]1CC[C@@H]1[C@@H]2CC[C@]2(C)[C@@H](C(=O)COC(=O)CCC(=O)O)CC[C@@H]12` [HYDROXYDIONE SUCCINIC ACID]: the pIC50 is under 4.70 and the IC50 was over 20 µM.
In the same order, the values of `C/C(O)=C(\C#N)C(=O)Nc1ccc(C(F)(F)F)cc1` [TERIFLUNOMIDE] are under 4.70 and over 20 µM.
For the compound `CCN(CC)C(C)C(=O)c1ccccc1` (stereo unspecified) [DIETHYLPROPION], the pIC50 is under 4.70 and the IC50 was over 20 µM.
In the same order, the values of `CCc1ccc(CCOc2ccc(CC3SC(=O)NC3=O)cc2)nc1` (stereo unspecified) [PIOGLITAZONE] are under 4.70 and over 20 µM.
`C[C@@H](O)[C@H](N)C(=O)O` [THREONINE]: the negative logarithm of the IC50 (pIC50) is under 4.70 and the IC50 is over 20 µM.
`COC(=O)C1=C(C)NC(C)=C(C(=O)OC(C)(C)CN(C)CCC(c2ccccc2)c2ccccc2)C1c1cccc([N+](=O)[O-])c1` (stereo unspecified) [LERCANIDIPINE]: the pIC50 is under 4.70 and the IC50 is over 20 µM.
The matching figures for `CCCCCCCCCCCCCCCCCC(=O)O` [STEARIC ACID]: under 4.70 and over 20 µM.
`CN1CCC(c2c[nH]c3ccc(NC(=O)c4ccc(F)cc4)cc23)CC1`: the negative logarithm of the IC50 (pIC50) is under 4.70 and the IC50 was over 20 µM.
In the case of `C[C@@H]1CN(c2c(F)c(N)c3c(=O)c(C(=O)O)cn(C4CC4)c3c2F)C[C@H](C)N1` [SPARFLOXACIN], the negative logarithm of the IC50 (pIC50) was under 4.70 and the IC50 was over 20 µM.
In the same order, the values of `CCCN(CCC)S(=O)(=O)c1ccc(C(=O)O)cc1` [PROBENECID] are under 4.70 and over 20 µM.
On to `O=C(O)c1cccc(-c2cccc(NCCNC[C@H](O)c3cccc(Cl)c3)c2)c1` [SOLABEGRON], for which the negative logarithm of the IC50 (pIC50) is under 4.70 and the IC50 was over 20 µM.
`CCOC(=O)C1(c2ccccc2)CCN(CCC(O)c2ccccc2)CC1` (stereo unspecified) [PHENOPERIDINE]: the negative logarithm of the IC50 (pIC50) was under 4.70 and the IC50 was over 20 µM.
In the same order, the values of `CCc1nc(C(N)=O)c(Nc2ccc(N3CCC(N4CCN(C)CC4)CC3)c(OC)c2)nc1NC1CCOCC1` [GILTERITINIB] are under 4.70 and over 20 µM.
The matching figures for `CCNC(=O)N1CCN(CCCC(c2ccc(F)cc2)c2ccc(F)cc2)CC1` [AMPEROZIDE]: under 4.70 and over 20 µM.
In the same order, the values of `O=C(Cn1ccnc1)c1ccc2ccccc2c1` [NAFIMIDONE] are under 4.70 and over 20 µM.
For the compound `c1ccc2c(c1)cc1ccc3cccc4ccc2c1c34`, the pIC50 was under 4.70 and the IC50 is over 20 µM.
The matching figures for `CCCn1c(=O)c2[nH]c(C3CC4CC3[C@H]3O[C@@H]43)nc2n(CCC)c1=O` (stereo partly specified): under 4.70 and over 20 µM.
For `FC(F)(F)c1ccc(CNc2ccc(Cc3c[nH]c4ncc(Cl)cc34)cn2)cn1` [PEXIDARTINIB], the negative logarithm of the IC50 (pIC50) is under 4.70 and the IC50 was over 20 µM.
In the same order, the values of `CCCCCCCCCCCCCC(=O)O` [MYRISTIC ACID] are under 4.70 and over 20 µM.
The matching figures for `NC(CSSCC(N)C(=O)O)C(=O)O` (stereo unspecified): under 4.70 and over 20 µM.
In the same order, the values of `CC(C)(Cc1ccccc1)NCC(O)c1ccc(O)c(NS(C)(=O)=O)c1` (stereo unspecified) [ZINTEROL] are under 4.70 and over 20 µM.
Take `c1ccc2c(c1)Nc1ccccc1S2` [PHENOTHIAZINE]: the pIC50 was under 4.70 and the IC50 was over 20 µM.
The matching figures for `CC(C)OC(=O)CCC/C=C\C[C@@H]1[C@@H](CC[C@@H](O)CCc2ccccc2)[C@H](O)C[C@@H]1O` [LATANOPROST]: under 4.70 and over 20 µM.
The matching figures for `CC1(C)OC(=O)Nc2ccc(Br)cc21` [BROFOXINE]: under 4.70 and over 20 µM.
The matching figures for `Oc1ccc(C(O)C2CCCCN2)cc1O` (stereo unspecified) [RIMITEROL]: under 4.70 and over 20 µM.
Consider `COc1ccc(COc2cc3oc(=O)c4cc(C(C)O)ccc4c3cc2OC)cc1` (stereo unspecified) [PALOMID-529], for which the negative logarithm of the IC50 (pIC50) was under 4.70 and the IC50 is over 20 µM.
In the same order, the values of `CN(C)CCN(Cc1ccc(Cl)s1)c1ccccn1` [CHLOROTHEN] are under 4.70 and over 20 µM.
The matching figures for `CN1CCN(C2=Nc3ccccc3Sc3ccc(Cl)cc32)CC1` [CLOTHIAPINE]: under 4.70 and over 20 µM.
The matching figures for `C[C@@H](N)C12CC3CC(CC(C3)C1)C2`: under 4.70 and over 20 µM.
With `COc1ccc([C@@H]2CNC(=O)[C@@H](Cc3cccc(C)c3)C2)cc1OC1CCCC1`, the pIC50 is under 4.70 and the IC50 is over 20 µM.
In the same order, the values of `CCN(CC)CCNC(=O)c1ccc(N)c(Cl)c1` [DECLOPRAMIDE] are under 4.70 and over 20 µM.
In the same order, the values of `Clc1ccccc1C(c1ccccc1)(c1ccccc1)n1ccnc1` [CLOTRIMAZOLE] are under 4.70 and over 20 µM.
In the same order, the values of `CC(C)n1nc(-c2cccc(Cl)c2Cl)c(N)nc1=N` [PALATRIGINE] are under 4.70 and over 20 µM.
Regarding `CCN(CC)CCOC(=O)C(C)(c1ccccc1)c1ccccc1` [APROFENE], the negative-log IC50 (pIC50) was under 4.70 and the IC50 was over 20 µM.
The matching figures for `CCCCNc1cc(C(=O)O)cc(S(N)(=O)=O)c1Oc1ccccc1` [BUMETANIDE]: under 4.70 and over 20 µM.
For `C/N=C(/Cc1ccc2ccccc2c1)NC` [NAPACTADINE], the pIC50 is under 4.70 and the IC50 was over 20 µM.
In the same order, the values of `CO[C@H](C)[C@](O)(C(=O)OCC1=CCN2CC[C@H](O)[C@@H]12)C(C)C` [HELIOTRINE] are under 4.70 and over 20 µM.
The matching figures for `Cc1ccc(O)cc1` [p-CRESOL]: under 4.70 and over 20 µM.
Turning to `COc1cc(Nc2ncc(F)c(Nc3ccc4c(n3)N(COP(=O)(O)O)C(=O)C(C)(C)O4)n2)cc(OC)c1OC` [FOSTAMATINIB], the pIC50 is under 4.70 and the IC50 was over 20 µM.
Consider `C[C@@H](NCCCCc1ccccc1)[C@@H](O)c1ccc2c(c1)CCS2`, for which the pIC50 is under 4.70 and the IC50 was over 20 µM.
The matching figures for `Cc1nnc2n1-c1sc(Br)cc1C(c1ccccc1Cl)=NC2` [BROTIZOLAM]: under 4.70 and over 20 µM.
In the same order, the values of `CCC(=O)O[C@@H]1CC(=O)O[C@H](C)C/C=C\C=C/[C@@H](O)[C@H](C)C[C@H](CC=O)[C@H](O[C@H]2O[C@H](C)[C@@H](O[C@H]3C[C@@](C)(O)[C@@H](OC(=O)CC)[C@H](C)O3)[C@H](N(C)C)[C@H]2O)[C@H]1OC` are under 4.70 and over 20 µM.
In the same order, the values of `NC(=O)C[S+]([O-])C(c1ccccc1)c1ccccc1` (stereo unspecified) [MODAFINIL] are under 4.70 and over 20 µM.
`Oc1cc(O)c2c(c1)OC(c1ccc(O)c(O)c1)C(O)C2` (stereo unspecified) [CATECHIN]: the negative-log IC50 (pIC50) was under 4.70 and the IC50 was over 20 µM.
On to `O=c1c(O)c(-c2cc(O)c(O)c(O)c2)oc2cc(O)cc(O)c12` [MYRICETIN], for which the pIC50 was under 4.70 and the IC50 was over 20 µM.
In the same order, the values of `CC(C)N1CCN(c2ccc(Nc3ncc4cc5n(c4n3)C3(CCCCC3)CNC5=O)nc2)CC1` [LEROCICLIB] are under 4.70 and over 20 µM.
In the same order, the values of `CC1(C)Cc2c(-c3ccccc3)c(-c3ccc(Cl)cc3)c(CC(=O)O)n2C1` [LICOFELONE] are under 4.70 and over 20 µM.
The matching figures for `CC(C)(C)c1cnc(CSc2cnc(NC(=O)C3CCNCC3)s2)o1` [BMS-387032]: under 4.70 and over 20 µM.
With `CC1=CCCC2C1(C)CCC(C)C2(C)Cc1cc(O)ccc1O` (stereo unspecified), the negative logarithm of the IC50 (pIC50) was under 4.70 and the IC50 was over 20 µM.
In the same order, the values of `CN1C2CCC1CC(O)C2` (stereo unspecified) are under 4.70 and over 20 µM.
In the same order, the values of `CCOC(=O)C1=C(C)NC(C)=C(C(=O)OC)C1c1cccc([N+](=O)[O-])c1` (stereo unspecified) [NITRENDIPINE] are under 4.70 and over 20 µM.
The matching figures for `C[C@@H]1O[C@@H](O[C@H]2CC[C@]3(C=O)[C@H]4CC[C@]5(C)[C@@H](C6=CC(=O)OC6)CC[C@]5(O)[C@@H]4CC[C@]3(O)C2)[C@H](O)[C@H](O)[C@H]1O` [CONVALLATOXIN]: under 4.70 and over 20 µM.
